In patent publication US4952564A, “Antiallergic agent” (Dainippon Ink and Chemicals, Inc., priority 1986, dated 1990):

What was measured:
[1] = tested on: rat peritoneal exudation cells; experiment: Inhibition effect on the liberation of histamine by compound 48/80; type: cell-based; details: for Liberation ratio of histamine (%): control 87.4, blank 9.3
Experimental: 2. Inhibition effect of the medicine on the liberation of histamine by compound 48/80.
(1) Preparation of rat peritoneal exudation cells
10 ml of Locke's solution containing 0.1% of bovine serum albumin was injected into the abdominal cavity of a rat which had been killed by exsanguination. The rat was lightly massaged, then subjected to an abdominal section so that an abdominal solution was collected. The abdominal cavity was also washed with 5 ml of the same solution and the washing solution was collected and mixed with the above abdominal solution. The abdominal solution was centrifuged at 500 rpm for 5 minutes, then 5 ml of cool Locke's solution was added to the sediment. After the sediment had been washed, 3 ml of cool Locke's solution was again added thereto to form a solution of rat peritoneal exudation cells.
(2) Inhibition effect of medicine on the liberation of histamine by compound 48/80.
0.5 ml of Locke's solution and 1.0 ml of each of the solutions of isoliquiritigenin prepared to the concentration shown in Table 2 (the isoliquiritigenin was dissolved in a physiological saline solution containing 1% sodium bicarbonate, the resultant solution being diluted with Locke's solution) were added to 0.3 ml of the solution of rat peritoneal exudation cells obtained in (1) above and were incubated at 37° C. for 5 minutes. Then, 0.2 ml each of a Locke's solution of the compound 48/80 (1 mg/100 ml) was added to the solution and the mixture was incubated at 37° C. for 10 minutes. After the reaction was stopped by cooling, the obtained solution was centrifuged at 2,500 rpm for 10 minutes to be separated into 1.7 ml of supernatant and 0.3 ml of sediment. 0.1 ml of water and 0.2 ml of 100% trichloroacetic acid were added to the supernatant, and 1.5 ml of Locke's solution and the 100% trichloroacetic acid were added to the sediment which was then allowed to stand for 30 minutes at room temperature and was centrifuged at 3,000 rpm for 15 minutes. 0.35 ml of each of the supernatant and the supernatant of the sediment was taken and 1.65 ml of water and 0.4 ml of 1N sodium hydroxide were added in turn to each of the supernatants. 0.1 ml of 0.5% OPT (orthophthalaldehyde) methanol solution was added to each of the resultant solutions which were then allowed to react at room temperature for 4 minutes. After the reaction was stopped by the addition of 0.2 ml of 2M citric acid, the fluorescence of each of the reaction solutions was measured by a fluorophotometer. […]
The inhibition ratio of isoliquiritigenin for the liberation of histamine by the compound 48/80 is calculated from the following equations: [formula]

[2] = Side effects when administered for a long time; type: in vivo; details: no test described
[3] = used in treatment of gastric ulcers; cited from earlier work
ddY male mice = experiment: Acute toxicity (minimum lethal dose) in mice; type: in vivo; details: for minimum lethal dose: five 5-week-old ddY male mice
Experimental: Isoliquiritigenin was orally or intra-peritoneally administered to five 5-week-old ddY male mice. Consequently, it was determined that the minimum lethal dose was not less than 3000 mg/kg (oral administration) or not less than 1000 mg/kg (intra-peritoneal administration).

ileum of the guinea pig = experiment: Schultz-Dale reaction (antigen-induced contraction of ileum of actively sensitized guinea pig); type: cell-based, guinea pig (Hartley)
Experimental: The Schultz-Dale test and the inhibition effect of the compound of the present invention on the liberation of histamines by a compound 48/80 indicate that isoliquiritigenin has an antiallergic activity.
(1) Active sensitization of guinea pig by antigenic egg-white albumin (EWA)
After 1, 2 and 3 weeks, additional sensitization was conducted by injecting an equivalent mixed emulsion of a physiological saline solution of 4 mg/ml of EWA and complete Freund's adjuvant into the muscle at a ratio of 0.1 ml/100 g and the guinea pig was subjected to the Schultz-Dale reaction one week after the final sensitization.
(2) Schultz-Dale reaction
The ileum of the guinea pig which was actively sensitized in (1) above was extirpated and immediately soaked in Tyrode's solution to form a specimen of a length of 15 mm which was suspended at a tensile force of l.5 g in a Magnus' tube (10 ml) kept at a temperature of 37° C. Contraction of the ileum by 10^-6 mole of histamine. […] Then, after preincubation for about 2 minutes, 10 μg/ml of EWA was added to the Magnus' tube and the contraction of the ileum was recorded. As a control, the contraction of the ileum was measured by an operation which was similar to that of the above, except that the physiological saline solution of isoliquiritigenin containing 0.2% sodium bicarbonate was not applied. […]

O=C(/C=C/c1ccc(O)cc1)c1ccc(O)cc1O [Isoliquiritigenin, isoliquiritigenin]
Liberation ratio of histamine (%) ([1]; isoliquiritigenin 100 mg/ml): 71.0% | Liberation ratio of histamine (%) ([1]; isoliquiritigenin 300 mg/ml): 32.7% | Liberation ratio of histamine (%) ([1]; isoliquiritigenin 1000 mg/ml): 9.2% | liberation of histamine from mast cells by compound 48/80 ([1]; result in words): inhibits histamines from liberating mast cells by the compound 48/80 | side effects [2]: few side effects | antiulcerous activity [3]: exhibits an antiulcerous activity | minimum lethal dose (ddY male mice; intra-peritoneal administration): not less than 1000 mg/kg | minimum lethal dose (ddY male mice; oral administration): not less than 3000 mg/kg | toxicity (ddY male mice; result in words): very low toxicity | inhibition at 100 µM (ileum of the guinea pig; Cavia porcellus, 10^-4 mole, EWA 10 μg/ml, versus control, read-out: Inhibition ratio (%)): 90.2% | contraction of the ileum of the guinea pig by histamine and SRS-A (ileum of the guinea pig; result in words): inhibits the contraction of the ileum of the guinea pig by histamine and SRS-A
